Source: ChEMBL document CHEMBL5131561, “Modified Benzofuran-carboxamide Compounds as Glucosylceramide Synthase Inhibitors for Treating Diseases” (ACS Med Chem Lett, 2022)
pEC50: −log10 of the molar value.

Target: T1, Ceramide glucosyltransferase (Homo sapiens, UniProt Q16739)
T1 sequence (Q16739 whole entry): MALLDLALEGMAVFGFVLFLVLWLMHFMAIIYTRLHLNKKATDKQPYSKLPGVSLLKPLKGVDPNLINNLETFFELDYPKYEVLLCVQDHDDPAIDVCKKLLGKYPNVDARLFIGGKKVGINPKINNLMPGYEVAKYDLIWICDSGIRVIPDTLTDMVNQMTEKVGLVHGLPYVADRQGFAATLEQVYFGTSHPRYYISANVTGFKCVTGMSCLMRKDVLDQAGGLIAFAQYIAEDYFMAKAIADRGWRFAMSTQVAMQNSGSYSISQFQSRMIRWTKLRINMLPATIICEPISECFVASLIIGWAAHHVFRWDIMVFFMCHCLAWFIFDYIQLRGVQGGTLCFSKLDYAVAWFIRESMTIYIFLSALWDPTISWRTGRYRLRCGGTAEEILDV
Assay: Inhibition of GCS in human A-375 cells using C6-ceramide and UDP-glucose as substrate preincubated for 30 mins followed by substrate addition measured after 20 hrs by UDP-Glo glucosylceramide synthase based luminometer analysis
Assay type: cell-based

- pEC50: 10.33
SMILES: N#Cc1ccc(Cl)c(-c2cccc3cc(C(=O)N[C@H]4CC[C@@H](O)C4)oc23)c1
